# Patent US7423030B2, “1-amino-phthalazine derivatives, the preparation and the therapeutic use thereof” (Sanofi-Aventis, priority 2004, dated 2008)
# Where a name gives a salt, the structure may show the parent alone.
row,SMILES,melting point
1,"COc1ccc2c(-c3ccc(C)s3)nnc(NC3CCN(Cc4ccccc4)CC3)c2c1 (as salt: salt) (hydrate or solvate) [Compound 16, N-(1-benzylpiperidin-4-yl)-7-methoxy-4-(5-methylthiophen-2-yl)phthalazin-1-amine]",155 °C
2,COc1cc(-c2ccccc2)c2cnnc(NC3CCN(Cc4ccc5ccccc5c4)CC3)c2c1.Cl.Cl (hydrate or solvate),199 °C
3,"COc1ccc(-c2nnc(NC3CCN(Cc4ccc5[nH]cnc5c4)CC3)c3cc(OC)ccc23)cc1 [Compound 138, N-[1-(1H-benzimidazol-5-ylmethyl)piperidin-4-yl]-7-methoxy-4-(4-methoxyphenyl)phthalazin-1-amine]",267 °C
4,"COc1ccc(-c2nnc(N[C@H]3CCN(Cc4ccc5ccccc5c4)C3)c3cc(OC)ccc23)cc1 (as salt: HCl) (hydrate or solvate) [Compound 96, 4-(4-Methoxyphenyl)-7-methoxy-N-[(3S)-1-(naphthalen-2-ylmethyl)pyrrolidin-3-yl]phthalazin-1-amine]",280 °C
5,"COc1ccc(-c2nnc(NC3CCN(Cc4ccc5ccccc5c4)CC3)c3cc(OC)ccc23)cc1 (as salt: salt) (hydrate or solvate) [Compound 3, 7-methoxy-4-(4-methoxyphenyl)-N-[1-(naphthalen-2-ylmethyl)piperidin-4-yl]phthalazin-1-amine]",195 °C
6,"COc1ccc2c(-c3ccccc3)nnc(NC3CCN(Cc4ccc5ccccc5c4)CC3)c2c1 (as salt: salt) (hydrate or solvate) [Compound 1, 7-methoxy-N-[1-(naphthalen-2-ylmethyl)piperidin-4-yl]-4-phenylphthalazin-1-amine]",121 °C
7,"COc1cccc(-c2nnc(NC3CCN(Cc4ccc5ccccc5c4)CC3)c3cc(OC)ccc23)c1 (as salt: salt) (hydrate or solvate) [Compound 5, 7-methoxy-4-(3-methoxyphenyl)-N-[1-(naphthalen-2-ylmethyl)piperidin-4-yl]phthalazin-1-amine]",154 °C
8,"COc1ccc(-c2nnc(NC3CCN(Cc4ccc(C#N)cc4)CC3)c3cc(OC)ccc23)cc1 (as salt: HCl) (hydrate or solvate) [Compound 108, N-[1-(4-cyanobenzyl)piperidin-4-yl)-7-methoxy-4-(4-methoxyphenyl)phthalazin-1-amine]",270 °C
9,"COc1ccc2c(CO)nnc(NC3CCN(Cc4ccc5ccccc5c4)CC3)c2c1 [Example 48, 4-Hydroxymethyl-7-methoxy-N-[1-(naphthalen-2-ylmethyl)piperidin-4-yl]phthalazin-1-amine]",102 °C
10,"COCc1ccc(-c2nnc(NC3CCN(Cc4ccc5ccccc5c4)CC3)c3cc(OC)ccc23)cc1 (as salt: salt) (hydrate or solvate) [Compound 88, 7-Methoxy-4-(4-methoxymethylphenyl)-N-[1-(naphthalen-2-ylmethyl)piperidin-4-yl]phthalazin-1-amine]",155 °C
11,"CCc1nnc(NC2CCN(Cc3ccc4ccccc4c3)CC2)c2cc(OC)ccc12 (as salt: salt) (hydrate or solvate) [Compound 20, 4-Ethyl-7-methoxy-N-[1-(naphthalen-2-ylmethyl)piperidin-4-yl]phthalazin-1-amine]",135 °C
12,"COc1ccc(-c2nnc(NC3CCN(Cc4ccc5ccccc5c4)CC3)c3ccc(C)cc23)cc1 (as salt: salt) (hydrate or solvate) [Compound 142, 4-(4-methoxyphenyl)-6-methyl-N-[1-(naphthalen-2-ylmethyl)piperidin-4-yl]phthalazin-1-amine]",134 °C
13,"COc1ccc(-c2nnc(NC3CCN(Cc4c[nH]c5ccccc45)CC3)c3cc(OC)ccc23)cc1 (as salt: salt) (hydrate or solvate) [Compound 65, N-[1-(1H-indol-3-ylmethyl)piperidin-4-yl]-7-methoxy-4-(4-methoxyphenyl)phthalazin-1-amine]",257 °C
14,"COc1ccc(-c2nnc(NC3CCN(Cc4ccc(C(C)=O)cc4)CC3)c3cc(OC)ccc23)cc1 (as salt: HCl) (hydrate or solvate) [Compound 121, 1-{4-[(4-{[7-methoxy-4-(4-methoxyphenyl)phthalazin-1-yl]amino}piperidin-1-yl)methyl]phenyl}ethanone]",241 °C
15,COc1ccc2c(-c3ccc(-c4ccccc4)cc3)nnc(NC3CCN(Cc4ccc5ccccc5c4)CC3)c2c1.Cl.Cl (hydrate or solvate),292 °C
16,"COc1ccc2c(Cc3ccccc3)nnc(NC3CCN(Cc4ccc5ccccc5c4)CC3)c2c1 (as salt: salt) (hydrate or solvate) [Compound 21, 4-Benzyl-7-methoxy-N-[1-(naphthalen-2-ylmethyl)piperidin-4-yl]phthalazin-1-amine]",104 °C
17,Cl.Cl.c1ccc(-c2ccc3c(-c4ccccc4)nnc(NC4CCN(Cc5ccc6ccccc6c5)CC4)c3c2)cc1 (hydrate or solvate),224 °C
18,"COc1ccc(-c2nnc(NC3CCN(Cc4ccc5sccc5c4)CC3)c3cc(OC)ccc23)cc1 (as salt: salt) (hydrate or solvate) [Compound 60, N-[1-(1-benzothien-5-ylmethyl)piperidin-4-yl]-7-methoxy-4-(4-methoxyphenyl)phthalazin-1-amine]",176 °C
19,COc1ccc(-c2nnc(NC3CCN(C/C=C/c4ccccc4)CC3)c3cc(OC)ccc23)cc1.Cl.Cl (hydrate or solvate),210 °C
20,COc1ccc(-c2nnc(NC3CCN(Cc4ccc5ccccc5c4)CC3)c3cc(OC)ccc23)c(OC)c1.Cl.Cl (hydrate or solvate),228 °C
21,"COc1cc(OC)c2cnnc(NC3CCN(Cc4ccccc4)CC3)c2c1 (as salt: salt) (hydrate or solvate) [Compound 13, N-(1-benzylpiperidin-4-yl)-5,7-dimethoxyphthalazin-1-amine]",169 °C
22,"COc1cc(OC)c2cnnc(NC3CCN(Cc4ccc5ccccc5c4)CC3)c2c1 (as salt: salt) (hydrate or solvate) [Compound 14, 5,7-dimethoxy-N-[1-(naphthalen-2-ylmethyl)piperidin-4-yl]phthalazin-1-amine]",206 °C
23,COc1ccc(OC)c(-c2nnc(NC3CCN(Cc4ccc5c(c4)OCO5)CC3)c3cc(OC)ccc23)c1.Cl.Cl (hydrate or solvate),272 °C
24,COc1ccc(-c2nnc(NC3CCN(Cc4ccc(CN)cc4)CC3)c3cc(OC)ccc23)cc1.Cl.Cl.Cl,203 °C
25,"COc1ccc(-c2nnc(NC3CCN(Cc4ccc(C)c(C)c4)CC3)c3cc(OC)ccc23)cc1 (as salt: salt) (hydrate or solvate) [Compound 29, N-[1-(3,4-dimethylbenzyl)piperidin-4-yl]-7-methoxy-4-(4-methoxyphenyl)phthalazin-1-amine]",130 °C
26,"COc1ccc(-c2nnc(NC3CCN(Cc4ccc(C)cc4)CC3)c3cc(OC)ccc23)cc1 (as salt: HCl) [Compound 75, 7-methoxy-4-(4-methoxyphenyl)-N-[1-(4-methylbenzyl)piperidin-4-yl]phthalazin-1-amine]",148 °C
27,COc1ccc(OC)c(-c2nnc(NC3CCN(Cc4ccc5ccccc5c4)CC3)c3cc(OC)ccc23)c1.Cl.Cl (hydrate or solvate),240 °C
